Test results reported in patent publication US4379091A, “Esters of arylpropionic acids endowed with an anti-inflammatory activity” (priority 1980, dated 1983).

Experiments:
[1] = tested on: gastric mucosa; experiment: gastric injuring effects; format: in vivo, Wistar rats
Description: The compounds were given intraperitoneally at the equimolar dose of 500 mg/kg. The animals were killed 5 hours after the treatment in order to assess the conditions of the gastric mucosa, and the possible presence of bleedings and ulcers.

[2] = tested on: abdominal squirmings (phenylquinone); experiment: analgesic activity: abdominal squirmings induced by phenylquinone; format: in vivo; details: oral, 100 mg/kg (equimolar doses), one hour before; 20 minutes observation
Description: Abdominal squirmings were induced by an intraperitoneal injection in saline, given at the dose of 4 mg/kg/20 ml.

[3] = tested on: carrageenin edema; experiment: carrageenin edema test in the rat (percent protection); format: in vivo, rat (Wistar); details: oral, ibuprofen 100 mg/kg, MR-653 200 mg/kg (equimolar)
[4] = tested on: carrageenin edema; experiment: as above; format: in vivo, rat (Wistar); details: for peak of activity (time) / time course of activity after the peak: carrageenin edema; for peak of activity (time) / time course of activity after the peak / Percent protection from the carrageenin edema: oral; for Percent protection from the carrageenin edema: detection after 4 hours, ibuprofen 100 mg/kg, MR-653 200 mg/kg (equimolar)
Description: 1 percent carrageenin in saline was given, at the rate of 0.1 ml subcutaneously, into the plantar area of the left paw.
The compounds were administered 1, 3 and 6 hours respectively before the carrageenin injection; the related values were always read 4 hours after the carrageenin injection, duly assessing the percent swelling of the paw versus the value at the time 0 (carrageenin inocula). The results are expressed as percent protection considering the swelling in the control group as equal to 100.

[5] = tested on: squirmings (acetylcholine); experiment: acetylcholine test: squirmings induced by acetylcholine; format: in vivo, mouse; details: oral, one hour before acetylcholine, equimolar doses; 4 minutes observation
Description: Squirmings were induced by an intraperitoneal injection of acetylcholine ([…]; 0.5 ml per mouse); both compounds were given orally one hour before the administration of acetylcholine at the dose of 10 mg/kg, in equimolar doses. […] The results reported below were obtained in comparison with the control group: […]

[6] = plasma kinetics of ibuprofen and MR-653 in the male rat
Excerpt: The investigational drugs were given by oral gavage, suspended in 0.5 percent gum arabic; an analogous suspension was used in the case of the intraperitoneal administration.

[7] = acute toxicity, oral LD 50 in the mouse; format: in vivo; details: in vivo; mouse, oral
[8] = tested on: mouse; experiment: acute toxicity, oral LD 50 in the mouse; format: in vivo; details: versus the corresponding acid (ibuprofen for MR-653)
[9] = solubility; format: physicochemical
[10] = intraperitoneal, equimolar dose of 500 mg/kg, 5 hours after treatment

| SMILES | incidence of punctiform ulcer [1, 10] [%] | protection versus the control group (phenylquinone squirming) [2] [%] | Percent protection from the carrageenin edema ([3]; detection after 1 hour) [%] | Percent protection from the carrageenin edema ([3]; detection after 2 hours) [%] | Percent protection from the carrageenin edema ([3]; detection after 3 hours) [%] | Percent protection from the carrageenin edema ([3]; detection after 6 hours) [%] | peak of activity (time) ([4]; equimolar doses) | time course of activity after the peak ([4]; equimolar doses) | Percent protection from the carrageenin edema [4] [%] | protection versus control group (acetylcholine squirming) [5] [%] | further results |
| --- | --- | --- | --- | --- | --- | --- | --- | --- | --- | --- | --- |
| CC(C)Cc1ccc(C(C)C(=O)O)cc1 (stereo not drawn) [Ibuprofen, 2-(4-isobutyl-phenyl) propionic acid] | 14 | 20 | 60 | 44 | 28 | 20 | around the first hour | rapid and progressive decrease even starting from the second hour | 24 | 50 | condition of stomach / peritoneum ([1]; rat, in vivo, ip, 500 mg/kg): almost normal mucosa with a fair quantity of a yellowish foamy secretion; time of peak of the plasma levels of ibuprofen ([6]; plasma kinetics, oral): at the first hour; AUC at 7 h ([6]; rat, in vivo, ip, 58.8 mg/kg): ~325 µg·h/mL; concentration at 0.5 h ([6]; rat, in vivo, ip, 58.8 mg/kg): 215000 ± 33400 ng/mL; concentration at 1 h ([6]; rat, in vivo, ip, 58.8 mg/kg): 105000 ± 12400 ng/mL; concentration at 2 h ([6]; rat, in vivo, ip, 58.8 mg/kg): 18300 ± 11000 ng/mL; concentration at 7 h ([6]; rat, in vivo, ip, 58.8 mg/kg): 6200 ± 2400 ng/mL; AUC at 7 h ([6]; rat, in vivo, po, 58.8 mg/kg): ~190 µg·h/mL; concentration at 1 h ([6]; rat, in vivo, po, 58.8 mg/kg): 71700 ± 23600 ng/mL; concentration at 2 h ([6]; rat, in vivo, po, 58.8 mg/kg): 32200 ± 7700 ng/mL; concentration at 5 h ([6]; rat, in vivo, po, 58.8 mg/kg): 12100 ± 22000 ng/mL; concentration at 7 h ([6]; rat, in vivo, po, 58.8 mg/kg): 9100 ± 1500 ng/mL |
| CC(C)Cc1ccc(C(C)C(=O)OCCOCCOCCOCCO)cc1 (stereo not drawn) [MR-653, Monoester of 2-(4-isobutyl-phenyl)propionic acid with tetraethylene glycol] | 16 | 20 | 64 | 59 | 47 | 34 | around the first hour | markedly slower | 44 | 48 | condition of stomach / peritoneum [1, 10]: mildly hyperemic peritoneal exudate; gastric injuring effects compared with the corresponding acid ([1]; versus the corresponding acid (ibuprofen for MR-653)): practically unchanged values of toxicity and gastric injuring effects; LD50 [7]: > 2000 mg/kg; toxicity compared with the corresponding acid [8]: practically unchanged values of toxicity and gastric injuring effects; anti-inflammatory activity higher than that of ibuprofen until the 6th hour ([4]; equimolar doses, versus ibuprofen): 48%; solubility in organic solvents ([9]; methanol, diethyl ether, acetone and chloroform): soluble on the other hand in methanol, diethyl ether, acetone and chloroform; solubility in water ([9]; water): practically insoluble in water |
